Earlier results, collected in PMC6376154 (International Journal for Parasitology: Drugs and Drug …, 2019).
Read-outs that look alike come from different tables or passages of the source.

System: P. falciparum 3D7 asexual blood stage
Conditions: cited from earlier work
[1] = MMV Malaria Box data sheet (supplement mmc2.xls), ref MMV data sheet
[2] = value(s) per source (GSK, GNF, StJude), separated by semicolon, ref ChEMBL-NTD, read-out: CHEMBL EC50
[3] = MMV Malaria Box data sheet, ref MMV data sheets
[4] = MMV Malaria Box data sheet, ref MMV data sheets, read-out: EC50_nM
[5] = source GNF, ref ChEMBL_NTD, read-out: CHEMBL EC50
[6] = MMV Malaria Box data sheet (supplement mmc2.xls), ref MMV data sheet, read-out: EC50_nM
[7] = MMV Malaria Box sheet, ref MMV data sheets
[8] = source GSK, ref ChEMBL_NTD, read-out: CHEMBL EC50
[9] = ChEMBL-NTD value per source (GNF, GSK, StJude), several values in a cell follow the order of the sources, read-out: CHEMBL EC50
[10] = MMV Malaria Box sheet, ref MMV data sheets, read-out: EC50_nM

CCCCOc1ccc(C(=O)Nc2cc(C)on2)cc1 [MMV007906]
percent_inh @ 5 uM [1]: 73% | EC50 [2]: 3160 nM

Cc1ccc(Nc2nc(-c3ccccn3)cs2)cc1 [MMV007907]
percent_inh @ 5 uM [3]: 79% | EC50 [4]: 350 nM | EC50 [5]: 407 nM

O=c1nc(C=Cc2ccc(Cl)cc2)oc2ccccc12 [MMV007977]
percent_inh @ 5 uM [1]: 76% | EC50 [6]: 995 nM

CCOc1ccc(CCNC(=O)c2cccs2)cc1OCC [MMV007978]
percent_inh @ 5 uM [7]: 95% | EC50 [5]: 890 nM

CN1CCN(c2c3c(c(C#N)c4nc5ccccc5n24)CCC3)CC1 [MMV008127]
percent_inh @ 2 uM [1]: 42% | EC50 [6]: 4000 nM | EC50 [2]: 1180 nM

O=C(O)C1Cc2c([nH]c3ccccc23)C(c2ccc(Cl)cc2Cl)N1 (centres unmarked) [MMV008138]
EC50 [4]: 350 nM | EC50 [5]: 1020 nM | EC50 [8]: 954 nM

Cc1c(C)n(Cc2ccc(F)cc2)c2ccc(C(=O)NCc3ccco3)cc12 [MMV008149]
percent_inh @ 5 uM [1]: 52% | EC50 [2]: 78.2 nM

CN1C=C(c2ccc3ccccc3n2)C(c2c[nH]c3ccccc23)c2ccccc21 (centres unmarked) [MMV008160]
EC50 [9]: 1140 nM

COc1cc(OC)cc(N2C(=O)N(Cc3ccc(C(C)(C)C)cc3)c3ccccc3S2(=O)=O)c1 [MMV008173]
percent_inh @ 5 uM [7]: 97% | EC50 [10]: 1430 nM | EC50 [5]: 3750 nM

Oc1c2c(nc3cc(-c4ccccc4)nn13)CCCC2 [MMV008270]
percent_inh @ 5 uM [1]: 77% | EC50 [2]: 1930 nM

CCOC(=O)c1cnc2c(C)cc(C)cc2c1Nc1ccc(OC)c(OC)c1 [MMV008294]
percent_inh @ 5 uM [3]: 96% | EC50 [4]: 232 nM | EC50 [5]: 1780 nM

CCCc1c(CC)c(=N)c2ccccc2n1C [MMV008416]
percent_inh @ 5 uM [3]: 69% | EC50 [4]: 242 nM | EC50 [5]: 762 nM

COc1ccc(C2C(C(=O)Nc3cccc(OC)c3)c3ccccc3C(=O)N2C2CCCCC2)cc1 (centres unmarked) [MMV008455]
percent_inh @ 5 uM [7]: 97% | EC50 [10]: 1180 nM | EC50 [5]: 1110 nM

CCN1CCN(c2c(C(=O)c3ccccc3)cnc3cc(OC)c(OC)cc23)CC1 [MMV008474]
percent_inh @ 5 uM [7]: 59% | EC50 [5]: 3020 nM

CCCn1c(=N)c(C(=O)NC2CCCCC2)cc2c(=O)n3cccc(C)c3nc21 [MMV008829]
EC50 [9]: 460 nM

CCOc1cc2c(cc1OCC)C(c1cc(OC)c(O)cc1Cl)NCC2 (centres unmarked) [MMV008956]
percent_inh @ 5 uM [3]: 98% | EC50 [4]: 370 nM | EC50 [5]: 362 nM | EC50 [8]: 748 nM

O=C(CCc1ccccc1)c1ccccc1OCC(O)CN1CCCCC1 (centres unmarked) [MMV009015]
EC50 [9]: 881 nM

CCN(CC)c1ccc(NC(=O)c2cccs2)cc1 [MMV009060]
percent_inh @ 5 uM [1]: 88% | EC50 [2]: 414 nM

OC(CNC1CCCCC1)Cn1c2ccccc2c2ccccc21 (centres unmarked) [MMV009063]
percent_inh @ 5 uM [3]: 93% | EC50 [4]: 293 nM | EC50 [5]: 483 nM | EC50 [8]: 991 nM

O=C1c2ccc3c4c(ccc(c24)C(=O)N1CCCCO)C(=O)N(CCCCO)C3=O [MMV009085]
EC50 [9]: 354 nM

CCN(CC)S(=O)(=O)c1ccc(-c2csc(Nc3ccc(C)c(C)c3)n2)cc1 [MMV009108]
percent_inh @ 5 uM [1]: 97% | EC50 [6]: 641 nM | EC50 [2]: 2100 nM

CC1CCN(Cc2c(O)ccc3cc(-c4nc5ccccc5s4)c(=O)oc23)CC1 [MMV009127]
percent_inh @ 5 uM [7]: 91% | EC50 [10]: 1130 nM | EC50 [5]: 12500 nM

Cc1cc(Nc2ccc3ccccc3c2)n2ncnc2n1 [MMV011099]
EC50 [4]: 242 nM | EC50 [8]: 173 nM

Cc1cc(Nc2ccc(Cl)cc2)n2nc(C(F)(F)F)nc2n1 [MMV011256]
EC50 [4]: 212 nM | EC50 [8]: 117 nM

Cc1cc(C)cc(Nc2cc(C)nc3nc(C(F)(F)F)nn23)c1 [MMV011259]
EC50 [4]: 85.7 nM

CC(C)(C)c1ccc(C2CC3=Nc4ccccc4N(C(=O)c4ccccc4Cl)C(c4ccc(F)cc4)C3=C(O)C2)cc1 (centres unmarked) [MMV011436]
EC50 [9]: 2630 nM

COC(=O)c1ccc(C2C3=C(O)CC(c4ccc(F)cc4)CC3=Nc3ccccc3N2C(=O)c2ccccc2)cc1 (centres unmarked) [MMV011438]
EC50 [9]: 332 nM

COc1ccc(C(=O)Nc2nonc2-c2ccc(OC)c(OC)c2)cc1Cl [MMV011567]
percent_inh @ 5 uM [3]: 92% | EC50 [4]: 516 nM | EC50 [5]: 1780 nM | EC50 [8]: 675 nM

CCOC(=O)C1CCN(C(=O)CN2C(=O)c3ccccc3C2c2c[nH]c3ccccc23)CC1 (centres unmarked) [MMV011576]
percent_inh @ 5 uM [7]: 98% | EC50 [10]: 1180 nM | EC50 [5]: 519 nM

Oc1ccccc1CN1CCN(C(c2ccccc2)c2ccccc2)CC1 [MMV011795]
percent_inh @ 5 uM [1]: 97% | EC50 [6]: 611 nM

Oc1ccc2ccccc2c1CNc1nc2ccccc2[nH]1 [MMV011832]
EC50 [9]: 652 nM

Nc1ccc(-c2nc3cc(Oc4ccc(Oc5ccc6[nH]c(-c7ccc(N)cc7)nc6c5)cc4)ccc3[nH]2)cc1 [MMV011895]
EC50 [9]: 288 nM

COc1cccc(Nc2nc(NCCO)c3ccccc3n2)c1 [MMV011944]
EC50 [6]: 854 nM

Cc1cc(NC(=O)c2ccc(-c3ccccc3)cc2)no1 [MMV018984]
percent_inh @ 5 uM [1]: 95% | EC50 [6]: 693 nM | EC50 [2]: 1020 nM

COCCNCC(O)Cn1c2ccc(Cl)cc2c2cc(Cl)ccc21 (centres unmarked) [MMV019017]
EC50 [6]: 1010 nM | EC50 [2]: 52 nM

COc1cccc(-c2nn(C)c3sc(C(=O)NCCN4CCN(c5ccccc5F)CC4)cc23)c1 [MMV019064]
percent_inh @ 5 uM [1]: 91% | EC50 [6]: 1300 nM | EC50 [2]: 955 nM

COc1ccccc1CNC(=O)CCn1c(=O)[nH]c2ccsc2c1=O [MMV019066]
percent_inh @ 5 uM [3]: 67% | EC50 [4]: 140 nM | EC50 [8]: 1040 nM

CCN1CCN(c2cc(C)c3cc(NC(=O)c4ccc(OC)c(OC)c4)ccc3n2)CC1 [MMV019074]
percent_inh @ 5 uM [1]: 99% | EC50 [2]: 1030 nM

Cc1cccc(Nc2nc(N)c3ccccc3n2)c1 [MMV019110]
percent_inh @ 2 uM [3]: 97% | EC50 [4]: 400 nM | EC50 [8]: 574 nM

CCN(Cc1ccccc1)C1CCN(Cc2cc(Br)ccc2O)CC1 [MMV019127]
percent_inh @ 5 uM [1]: 97% | EC50 [6]: 625 nM | EC50 [2]: 823 nM

COc1cccc(Nc2nc(N)c3ccccc3n2)c1 [MMV019199]
EC50 [9]: 934 nM

O=C(Nc1ccc(-c2nc3cc4ccccc4cc3[nH]2)cc1)c1cccc(Br)c1 [MMV019241]
percent_inh @ 5 uM [7]: 93% | EC50 [10]: 450 nM | EC50 [8]: 363 nM

COc1ccc(-n2ccnc2SCC(=O)Nc2cc(C)ccc2C)c(OC)c1 [MMV019258]
percent_inh @ 5 uM [3]: 95% | EC50 [4]: 170 nM | EC50 [8]: 205 nM

Cc1sc2ncnc(Sc3nc4ccccc4[nH]3)c2c1C [MMV019266]
percent_inh @ 5 uM [7]: 100% | EC50 [10]: 614 nM | EC50 [8]: 255 nM

Cn1c(=O)c2cc(C(=O)NCCCN3CCCCCC3)sc2c2ccccc21 [MMV019313]
percent_inh @ 5 uM [1]: 97% | EC50 [6]: 669 nM | EC50 [2]: 689 nM

CCC1(C)CC(CCNCc2ccccc2O)(c2ccc(C)cc2)CCO1 (centres unmarked) [MMV019406]
percent_inh @ 5 uM [3]: 97% | EC50 [4]: 142 nM | EC50 [8]: 38.8 nM

c1ccc2c(NCCCCCCNc3c4c(nc5ccccc35)CCCC4)c3c(nc2c1)CCCC3 [MMV019555]
percent_inh @ 5 uM [7]: 100% | EC50 [10]: 376 nM | EC50 [8]: 196 nM

COc1ccc(N2CCN(C(CNC(=O)C3CCCCC3)c3ccc4c(c3)OCO4)CC2)cc1 (centres unmarked) [MMV019662]
percent_inh @ 5 uM [1]: 97% | EC50 [6]: 1110 nM | EC50 [2]: 566 nM

O=C(Nc1ccc(N2CCN(Cc3ccccc3)CC2)cc1)c1cccs1 [MMV019670]
percent_inh @ 5 uM [1]: 59% | EC50 [6]: 1080 nM | EC50 [2]: 769 nM

COc1ccc(C2NCCc3c2[nH]c2ccccc32)cc1CN1CCN(c2ccc(F)cc2)CC1 (centres unmarked) [MMV019690]
percent_inh @ 5 uM [7]: 97% | EC50 [10]: 934 nM | EC50 [8]: 776 nM

O=C(Nc1ccc(N2CCCCC2)c(Cl)c1)c1ccc(Br)o1 [MMV019700]
percent_inh @ 5 uM [1]: 96% | EC50 [6]: 735 nM | EC50 [2]: 549 nM

Cc1[nH]c(-c2ccc(F)cc2)cc1C(=O)NC1CCN(Cc2ccccc2)CC1 [MMV019738]
percent_inh @ 5 uM [1]: 99% | EC50 [6]: 771 nM | EC50 [2]: 1130 nM

Cc1ccc(C)c(Cn2c(N3CCC(C(=O)NCc4cccs4)CC3)nc3ccccc32)c1 [MMV019741]
percent_inh @ 5 uM [7]: 97% | EC50 [10]: 1330 nM | EC50 [8]: 938 nM

Cc1ccc(Cl)cc1N1CCN(CCCNC(=O)C2CCN(c3nc4ccccc4[nH]3)CC2)CC1 [MMV019746]
percent_inh @ 5 uM [1]: 97% | EC50 [6]: 1330 nM | EC50 [2]: 895 nM

COc1ccc(C(=O)Nc2ccc3nc(N4CCCCC4)cc(C)c3c2)cc1OC [MMV019758]
percent_inh @ 5 uM [1]: 76% | EC50 [2]: 994 nM

COc1cccc(C(=O)Nc2ccc(-c3nc4ccccc4[nH]3)cc2)c1 [MMV019762]
percent_inh @ 5 uM [7]: 83% | EC50 [8]: 802 nM

Cc1cc(C)c2nc(N3CCC(C(=O)NCCCN4CCC(N5CCCCC5)CC4)CC3)sc2c1 [MMV019780]
percent_inh @ 5 uM [1]: 98% | EC50 [6]: 697 nM | EC50 [2]: 838 nM

Fc1ccc2[nH]c3c(NCCCN4CCOCC4)ncnc3c2c1 [MMV019871]
percent_inh @ 5 uM [3]: 98% | EC50 [4]: 345 nM | EC50 [8]: 714 nM

O=C(NC1CCN(Cc2ccccc2)CC1)c1cc(C(=O)NC2CCN(Cc3ccccc3)CC2)cc(C(=O)NC2CCN(Cc3ccccc3)CC2)c1 [MMV019881]
EC50 [9]: 1040 nM

Clc1cc(Br)ccc1-c1ccc(CNCC2CCNCC2)o1 [MMV019918]
percent_inh @ 5 uM [1]: 96% | EC50 [6]: 800 nM | EC50 [2]: 1510 nM

O=C(NCCCN1CCC(N2CCCCC2)CC1)C1=Cc2cc(Br)ccc2OC1 [MMV019995]
percent_inh @ 5 uM [7]: 99% | EC50 [10]: 563 nM | EC50 [8]: 853 nM

Cc1cc(N(C)C)nc(Nc2ccc(NC(=O)Nc3ccccc3)cc2)n1 [MMV020243]
EC50 [9]: 134 nM
